Tests used:
[1] = test system: N-acetyl amino acid racemase from Amycolatopsis orientalis subsp. lurida; test: Detection of racemase activity of recombinant AAR (polarimetric racemization assay); format: biochemical; conditions: substrate 25 mM, Tris/HCl 50 mM pH 8.0, cobalt chloride 6 mM, approx 150 μg purified protein, 30° C., 3 to 12 hours, polarimeter λ=365 nm
Procedure: The substrate spectrum of the N-acetyl amino acid racemase from Amycolatopsis orientalis subsp. lurida was tested using the enzyme assay described below. The assay was composed of the following: [table] Enantiomerically pure amino acid derivatives were used in the test and the formation of the corresponding racemate was monitored in the polarimeter (Perkin-Elmer 241). Incubation took place at 30° C. (heated cell) for 3 to 12 hours. The measurements were taken at a wave length of λ=365 nm.

[2] = biological target: T1, N-acyl amino acid racemase from A. TS-1-60 (Amycolatopsis sp, UniProt Q44244); test: Racemase activity of the N-acyl amino acid racemase from A. TS-1-60; format: biochemical, Amycolatopis sp. TS-1-60; conditions: N-carbamoyl-D-Met as substrate
T1 sequence (Q44244 1-368): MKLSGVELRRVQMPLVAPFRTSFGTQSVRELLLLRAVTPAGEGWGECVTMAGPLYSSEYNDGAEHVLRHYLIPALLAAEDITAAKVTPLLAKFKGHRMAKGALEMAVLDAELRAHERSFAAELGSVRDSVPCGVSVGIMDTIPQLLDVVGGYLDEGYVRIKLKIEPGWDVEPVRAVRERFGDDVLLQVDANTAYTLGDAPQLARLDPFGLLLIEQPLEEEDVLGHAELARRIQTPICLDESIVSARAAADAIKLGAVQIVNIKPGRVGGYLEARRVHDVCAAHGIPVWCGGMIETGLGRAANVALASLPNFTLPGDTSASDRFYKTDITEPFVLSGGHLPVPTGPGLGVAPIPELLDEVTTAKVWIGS
From the text: The N-acyl amino acid racemase from A. TS-1-60 with N-carbamoyl-D-Met as substrate has an activity of 100 mU/mg. This specific activity is thus 35% lower than that of the racemase from A. orientalis subsp. lurida.

| Compound | Specific activity of the AAR [1] [mU/mg] | activity (specific activity) of the racemase from A. TS-1-60 [2] [mU/mg] | specific activity lower than that of the racemase from A. orientalis subsp. lurida ([2]; TS-1-60 racemase versus A. orientalis subsp. lurida racemase) [%] |
| --- | --- | --- | --- |
| CSCC[C@@H](NC(N)=O)C(=O)O [N-Carbamoyl-D-Met] | 155 | 100 | 35 |
| NC(=O)N[C@H](Cc1ccccc1)C(=O)O [N-Carbamoyl-D-Phe] | 20 |  |  |
| CC(C)C[C@H](NC(N)=O)C(=O)O [N-Carbamoyl-L-Leu] | 20 |  |  |
| CSCC[C@H](NC(N)=O)C(=O)O [N-Carbamoyl-L-Met] | 118 |  |  |
| NC(=O)N[C@@H](Cc1ccc(O)cc1)C(=O)O [N-Carbamoyl-L-Tyr] | 62 |  |  |
| CC(C)[C@H](NC(N)=O)C(=O)O [N-Carbamoyl-L-Val] | 20 |  |  |
| N-Carbamoyl-L-Abs | 15 |  |  |

— patent US6767725B2, “Acetyl amino acid racemase from amycolatopsis orientalis for racemizing carbamoyl amino acids” (Degussa AG, priority 2000, dated 2004)
